In patent US20070010548A1, “Compounds having inhibitive activity of phosphatidylinositol 3-kinase and methods of use thereof” (ZENTARIS GmbH, priority 2003, published 2007):
Where two headings read alike, the source gives them in different places.

Assays:
PI 3-K alpha = biological target: T1, PI 3-K alpha (Homo sapiens, UniProt P42336); assay: PI 3-K activity assay, IC50 determination (AlphaScreen luminescent or Fluorescence Polarization); assay type: biochemical; conditions: inhibition of enzyme activity in vitro
T1 construct: made in house; host or cells: Sf9 cells, baculovirus expression system; constructs from the lab of Dr. Alex Toker, Harvard University
Method: Recombinant heterodimeric PI 3-K alpha, consisting of a p110 catalytic subunit and a GST-tagged p85 regulatory subunit, was expressed in Sf9 cells using a baculoviras expression system. Expression constructs were obtained from the lab of Dr. Alex Toker, Harvard University. The method is well known to those skilled in the art and is also described in Stoyanov et al., Science 269, 690-693 (1995).and Stoyanova et al., Biochem. J. 324 :489-495. (1997).
PI 3-kinase reactions were performed in a reaction buffer containing 5 mM HEPES, pH 7, 2.5 mM MgCl2, and 25 μM ATP, containing 50 ng of recombinant PI 3-K with 10 picomoles of diC8 PI(4,5)P2 (Echelon Biosciences) as the substrate. The reactions were allowed to proceed at room temperature for 1-3 hours, then quenched by the addition of EDTA to a final concentration of 10 mM. The final reaction volumes were 10 μl. The compounds to be tested for inhibition were added to a final concentration of 1 μM from stocks in DMSO. The final concentration of DMSO was 1%.
Conversion of the substrate to PI(3,4,5)P3 was determined using a competition assay using Amplified Luminescent Proximity Homogeneous Assay (ALPHA®) technology developed by Perkin Elmer. 0.25 picomoles of recombinant GST-Grp1-PH domain protein and 0.25 picomoles of biotinylated diC6 PI(3,4,5)P3 (Echelon Biosciences) were added to each reaction mixture. Donor and Acceptor beads from the AlphaScreen® GST (Glutathione-S-Transferase) Detection Kit (PerkinElmer) were added to a final concentration of 20 μg/ml. The final volume was 25 μl. The reactions were incubated at 37° C. for two hours, and the luminescent signal was read on a Fusion α microplate reader. Percent inhibition of enzyme activity was determined by comparison to no enzyme (100% inhibition) and DMSO alone (0% inhibition) controls.
An alternate method used for detecting substrate conversion to PI(3,4,5)P3 was a competitive Fluorescence Polarization assay. 125 picomoles of recombinant GST-Grp1-PH domain protein and 0.25 picomoles of TAMRA-I(1,3,4,5)P4 (Echelon Biosciences) were added to each reaction mixture The final volume was 25 μl. Polarization values were measured on a microplate reader using 550 nm excitation/580 nm polarizing emission filters. BODIPY-TMR-I(1,3,4,5)P4 or BODIPY-TMR-PI(3,4,5)P3 could substitute as the fluorescent tracers in this assay. Percent inhibition of enzyme activity was determined by comparison to no enzyme (100% inhibition) and DMSO alone (0% inhibition) controls.
A library of potential PI 3-K inhibitors was tested for activity against PI 3-K alpha in the following manner. From the active compounds identified, twelve were selected as representatives from different chemical groups present in the library and subjected to further analysis. IC50 values were determined for the selected compounds of the present invention. Enzyme activity assays were performed as previously described, in the presence of a range of compound concentrations to allow determination of IC50 values. Enzyme activity and percent inhibition was determined using the AlphaScreen® luminescent assay or a Fluorescence Polarization assay as previously described. These inhibitors may also show activity against other PI 3-K isoforms, including PI 3-K beta, gamma, and delta.

[1] = tested on: tumor cells altered in PI 3-K/PTEN; assay: Cellular growth inhibition assays on tumor cells altered in PI 3-K/PTEN; assay type: cell-based; conditions: for IC50: approximate, read-out: Approx. mIC50 in cellular assays
Method: (§1) The ovarian cancer cell line SKOV3 is not altered in PI 3-K signaling and should be less sensitive to the anti-proliferative effects produced by treatment with PI 3-K inhibitors, while the OVCAR3 cell line, which is altered in PI 3-K signaling, via amplification of PI 3-K activity, should be sensitive. SKOV3 cells were seeded in 96-well cell culture plates (Greiner) at a density of 20,000 cells per well in McCoys 5A media (GibcoBRL) with 10% fetal calf serum and 20 mM L-glutamine. OVCAR3 cells were seeded at a density of 15,000 cells per well in RPMI 1640 media (GibcoBRL) containing 20 mM 1-glutamine, 0.01 ng/ml bovine insulin, 10 mM Hepes pH 7.4, 1 mM sodium pyruvate, 2.5 g/L glucose, and 20% fetal calf serum. After 24 hours, compounds were added to cell media to a final concentration of 1 μM, and the cells were grown in the presence of the compounds for 48 hours, in media containing 0.5% fetal calf serum. Viability was determined using a MTT cell proliferation assay (R and D Systems) and comparison to DMSO alone controls (100% viability). Compounds which result in reduced viability may act either by inhibiting cell proliferation or by inducing apoptosis (programmed cell death).
Selected compounds were evaluated against paired ovarian cancer cell lines at a range of concentrations to determine effective concentrations for growth inhibition.
MDA-MB-468 and MDA-MB-231 cells were seeded in 96-well cell culture plates (Greiner) at a density of 20,000 cells per well in RMPI media (GibcoBRL) with 10% fetal calf serum and 20 mM L-glutamine. After 24 hours, compounds were added to cell media to a final concentrations ranging from 10 nM to 100 μM, and the cells were grown in the presence of the compounds for 48 hours in RMPI media containing 0.5% fetal calf serum and 20 mM L-glutamine. Viability was determined using a MTT cell proliferation assay (R and D Systems) and comparison to DMSO alone controls (100% viability). Compounds which result in reduced viability may act either by inhibiting cell proliferation or by inducing apoptosis (programmed cell death). […] Selected compounds were evaluated against the paired breast cancer cell lines at a range of concentrations to determine effective concentrations for growth inhibition.
Table 3 summarizes the data for several compounds of this structural group, including the IC50 for inhibition of enzyme activity in vitro, cellular mIC50 and anti-proliferative activity against tumor cells altered in PI 3-K mediated signaling, and effects on cellular levels of phospho-Akt.

SKOV3 cells = assay: MTT cell proliferation/viability assay, SKOV3 ovarian cancer cells; assay type: cell-based; conditions: Homo sapiens
Method: as §1
(§2) Many of these also show similar selective effects on cell growth. Table 2 summarizes the results of two separate cell proliferation experiments for selected compounds of the present invention.

OVCAR3 cells = assay: MTT cell proliferation/viability assay, OVCAR3 ovarian cancer cells; assay type: cell-based; conditions: Homo sapiens
Method: as §1, §2

[2] = SK-OV-3, 48 hours, MTT, DMSO alone controls = 100% viability, Trial 1, read-out: Trial 1 SKOV-3 (viability)
[3] = SK-OV-3, 48 hours, MTT, DMSO alone controls = 100% viability, Trial 2, read-out: Trial 2 SKOV-3 (viability)
[4] = SK-OV-3, average of Trial 1 and Trial 2, 48 hours, read-out: Average SKOV3 (viability)
[5] = OVCAR-3, 48 hours, MTT, DMSO alone controls = 100% viability, Trial 1, read-out: Trial 1 OVCAR3 (viability)
[6] = OVCAR-3, 48 hours, MTT, DMSO alone controls = 100% viability, Trial 2, read-out: Trial 2 OVCAR3 (viability)
[7] = OVCAR-3, average of Trial 1 and Trial 2, 48 hours, read-out: average OVCAR-3 (viability)

T1 sequence (P42336 whole entry, species assumed): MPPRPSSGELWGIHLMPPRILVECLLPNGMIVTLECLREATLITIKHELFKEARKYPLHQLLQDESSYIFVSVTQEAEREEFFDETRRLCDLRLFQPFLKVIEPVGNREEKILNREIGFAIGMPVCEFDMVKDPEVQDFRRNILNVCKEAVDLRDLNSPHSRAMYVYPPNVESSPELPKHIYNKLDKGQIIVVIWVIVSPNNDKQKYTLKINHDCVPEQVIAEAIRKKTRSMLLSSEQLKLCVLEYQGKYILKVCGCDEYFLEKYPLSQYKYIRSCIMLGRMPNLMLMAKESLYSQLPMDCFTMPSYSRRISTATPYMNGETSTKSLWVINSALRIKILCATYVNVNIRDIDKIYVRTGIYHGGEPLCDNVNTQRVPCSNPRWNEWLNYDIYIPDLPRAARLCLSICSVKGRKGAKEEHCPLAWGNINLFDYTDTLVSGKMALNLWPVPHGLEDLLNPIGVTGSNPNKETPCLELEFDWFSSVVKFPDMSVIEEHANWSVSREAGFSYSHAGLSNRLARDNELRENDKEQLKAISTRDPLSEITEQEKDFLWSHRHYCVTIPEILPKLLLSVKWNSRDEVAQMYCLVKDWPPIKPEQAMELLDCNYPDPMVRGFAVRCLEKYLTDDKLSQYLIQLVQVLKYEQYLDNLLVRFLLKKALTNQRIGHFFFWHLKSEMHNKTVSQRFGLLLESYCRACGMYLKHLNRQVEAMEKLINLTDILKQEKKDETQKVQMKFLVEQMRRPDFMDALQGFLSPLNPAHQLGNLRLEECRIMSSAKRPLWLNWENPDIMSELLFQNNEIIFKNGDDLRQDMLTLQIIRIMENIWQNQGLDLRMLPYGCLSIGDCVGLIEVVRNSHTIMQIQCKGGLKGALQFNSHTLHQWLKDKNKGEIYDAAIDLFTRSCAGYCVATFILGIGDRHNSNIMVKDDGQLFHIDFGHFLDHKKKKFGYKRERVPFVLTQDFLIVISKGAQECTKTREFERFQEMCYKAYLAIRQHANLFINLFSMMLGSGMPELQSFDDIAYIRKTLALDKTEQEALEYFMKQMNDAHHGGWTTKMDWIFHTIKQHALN
T1 sequence (P27986 whole entry partner, species assumed): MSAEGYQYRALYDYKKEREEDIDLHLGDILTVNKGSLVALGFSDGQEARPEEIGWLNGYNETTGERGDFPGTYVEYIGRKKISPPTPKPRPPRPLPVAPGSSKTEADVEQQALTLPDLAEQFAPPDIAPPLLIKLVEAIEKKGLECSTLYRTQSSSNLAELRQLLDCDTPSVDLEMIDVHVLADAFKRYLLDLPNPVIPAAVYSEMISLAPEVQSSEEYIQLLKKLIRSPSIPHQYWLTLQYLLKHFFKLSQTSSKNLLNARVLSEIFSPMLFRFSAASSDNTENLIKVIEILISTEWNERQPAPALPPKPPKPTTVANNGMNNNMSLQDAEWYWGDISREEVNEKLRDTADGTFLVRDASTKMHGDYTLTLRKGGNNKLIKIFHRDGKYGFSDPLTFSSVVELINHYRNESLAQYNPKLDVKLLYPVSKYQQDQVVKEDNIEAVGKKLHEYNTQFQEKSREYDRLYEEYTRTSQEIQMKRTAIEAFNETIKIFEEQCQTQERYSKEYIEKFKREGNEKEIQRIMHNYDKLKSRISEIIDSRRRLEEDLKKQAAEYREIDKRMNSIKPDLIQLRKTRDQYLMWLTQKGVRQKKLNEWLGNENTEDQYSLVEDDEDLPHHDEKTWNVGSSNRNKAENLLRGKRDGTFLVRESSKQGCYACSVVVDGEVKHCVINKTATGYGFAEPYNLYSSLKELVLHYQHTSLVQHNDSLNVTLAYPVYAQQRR

Row | Compound | IC50 (PI 3-K alpha) | Anti-proliferative effects on tumor cells altered in PI 3-K/PTEN [1] | IC50 [1] | viability at 1 µM (SKOV3 cells; [2]) | viability at 1 µM (SKOV3 cells; [3]) | viability at 1 µM (SKOV3 cells; [4]) | viability at 1 µM (OVCAR3 cells; [5]) | viability at 1 µM (OVCAR3 cells; [6]) | viability at 1 µM (OVCAR3 cells; [7])
1 | CC1(C)CC(=O)C2=C(C1)Nc1c(c(C(C)(C)C)nn1C(C)(C)C)C2c1ccc(OCc2ccccc2)c(OCc2ccccc2)c1 (stereo not drawn) [Compound 963985] | 0.5 µM | Yes | 1 µM |  |  |  |  |  | 
2 | Cc1ccc(C2C3=C(CC(C)(C)CC3=O)Nc3c2c(C(C)(C)C)nn3-c2ccc(C)cc2)cc1 (stereo not drawn) [Compound 964028, 3-t-butyl-4-(4-methylphenyl)-7,7-dimethyl-1-(4-methylphenyl)-4,7,8,9-tetrahydro-1H-pyrazolo[3,4-b]quinolin-5(6H)-one] | 1 µM | Yes | 10 µM | 100% | 99.1% | 99.5% | 42% | 45.4% | 43.7%
3 | COc1ccc(-n2nc(C(C)(C)C)c3c2NC2=C(C(=O)CC(C)(C)C2)C3c2ccccc2Cl)cc1 (stereo not drawn) [Compound 964076, 3-t-butyl-4-(2-chlorophenyl)-7,7-dimethyl-1-(4-methoxyphenyl)-4,7,8,9-tetrahydro-1H-pyrazolo[3,4-b]quinolin-5(6H)-one] | 3 µM | Yes | 10 µM | 100% | 92.9% | 96.5% | 41% | 53.2% | 47.1%
4 | COc1ccc(OC)c(C2C3=C(CC(C)(C)CC3=O)Nc3c2c(C(C)(C)C)nn3-c2ccc(C)cc2C)c1 (stereo not drawn) [Compound 964232] | 5 µM | Yes | < 20 µM | 98% | 100% | 99% | 45% | 71% | 58%
5 | COc1ccccc1C1C2=C(CC(C)(C)CC2=O)Nc2c1c(C(C)(C)C)nn2-c1ccc(Cl)c(C)c1 (stereo not drawn) [Compound 964247] | 7 µM | Yes | < 20 µM | 100% | 100% | 100% | 42% | 43.7% | 42.9%
6 | CC1(C)CC(=O)C2=C(C1)Nc1c(c(C(C)(C)C)nn1-c1ccc(Cl)c(Cl)c1)C2c1cccc(OCc2ccccc2)c1 (stereo not drawn) [Compound 964260] | 8 µM | Yes | < 20 µM | 93% | 85% | 89% | 41% | 53% | 47%
7 | CC1(C)CC(=O)C2=C(C1)Nc1c(c(-c3ccccc3)nn1-c1cccc(F)c1)C2c1ccc(C(F)(F)F)cc1 (stereo not drawn) [Compound 964661] | 8 µM | Yes | < 20 µM | 99% | 77.1% | 88% | 36% | 58.9% | 47.5%
